The assay concerns the target PIK3CG (human) (UniProt P48736). The assay can be described thus: Inhibition of PIK3CG Kinase Activity.

We go through 29 molecules from the Kinase Knowledgebase extract (Sharma et al. 2016).

SMILES strings stand for the structures.

PIK3CG (human), sequence (P48736 whole entry, looked up): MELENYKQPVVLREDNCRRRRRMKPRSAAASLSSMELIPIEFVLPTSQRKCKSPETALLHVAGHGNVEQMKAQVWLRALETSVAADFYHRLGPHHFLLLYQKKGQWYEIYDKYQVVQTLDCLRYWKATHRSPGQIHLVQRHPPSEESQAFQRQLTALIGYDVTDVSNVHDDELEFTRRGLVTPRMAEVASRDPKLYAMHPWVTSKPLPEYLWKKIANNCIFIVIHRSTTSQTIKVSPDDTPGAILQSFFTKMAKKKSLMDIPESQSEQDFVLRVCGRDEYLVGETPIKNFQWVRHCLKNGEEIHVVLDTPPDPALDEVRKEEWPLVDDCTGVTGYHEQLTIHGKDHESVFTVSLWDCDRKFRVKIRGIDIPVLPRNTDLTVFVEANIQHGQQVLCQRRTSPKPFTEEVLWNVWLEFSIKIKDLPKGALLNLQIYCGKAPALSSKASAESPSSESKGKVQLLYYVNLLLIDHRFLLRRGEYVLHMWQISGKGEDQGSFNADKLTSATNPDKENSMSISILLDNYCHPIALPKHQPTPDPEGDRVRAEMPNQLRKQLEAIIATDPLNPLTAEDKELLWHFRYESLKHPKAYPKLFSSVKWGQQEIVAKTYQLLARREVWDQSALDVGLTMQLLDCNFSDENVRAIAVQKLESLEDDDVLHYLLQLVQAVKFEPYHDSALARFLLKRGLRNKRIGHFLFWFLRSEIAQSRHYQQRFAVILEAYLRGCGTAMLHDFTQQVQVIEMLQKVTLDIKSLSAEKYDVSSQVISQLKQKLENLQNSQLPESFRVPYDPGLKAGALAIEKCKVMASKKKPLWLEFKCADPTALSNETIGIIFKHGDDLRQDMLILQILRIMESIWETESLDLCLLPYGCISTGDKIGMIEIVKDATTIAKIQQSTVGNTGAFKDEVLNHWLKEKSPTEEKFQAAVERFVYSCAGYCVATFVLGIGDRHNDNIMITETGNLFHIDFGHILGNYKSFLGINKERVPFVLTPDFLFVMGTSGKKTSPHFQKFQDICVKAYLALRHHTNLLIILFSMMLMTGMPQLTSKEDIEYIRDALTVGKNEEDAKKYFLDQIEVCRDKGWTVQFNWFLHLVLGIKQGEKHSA

The IC50 is the concentration that gives 50% inhibition. For `O=C(Nc1nnn[nH]1)c1oc2ccc(Cl)cc2c1OC1CCCC1`, the IC50 came to 3320 nM. The figure for `COc1ccc2oc(C(=O)Nc3nnn[nH]3)c(OC(C)C3CCCC3)c2c1` (centres undefined) is 150 nM; for `COc1ccc2oc(C(=O)Nc3nnn[nH]3)c(OC3CCCCCCC3)c2c1` it is 185 nM.

For `COc1ccc2oc(C(=O)Nc3nnn[nH]3)c(OC3CCC4CCCCC4C3)c2c1` (centres undefined), the IC50 is 325 nM. This IC50 is about 1.8-fold higher than that of the molecule before.

Regarding `COc1ccc2oc(C(=O)Nc3nnn[nH]3)c(OC3CCC3)c2c1`, the IC50 turned out to be 400 nM. As to `COc1ccc2oc(C(=O)Nc3nnn[nH]3)c(OC3CC(C)CC3C)c2c1` (centres undefined), the IC50 was 290 nM.

In turn, `COc1ccc2oc(C(=O)Nc3nnn[nH]3)c(OCC3CCCC3)c2c1` displayed an IC50 of 160 nM. The molecule `COc1ccc2oc(C(=O)Nc3nnn[nH]3)c(OCC3C4CCC(C4)C3C)c2c1` (centres undefined) returned an IC50 of 67 nM. Molecule `COc1ccc2oc(C(=O)Nc3nnn[nH]3)c(OC3CC(C)CC(C)C3)c2c1` (centres undefined) came in with an IC50 of 41 nM.

Take `COc1ccc2oc(C(=O)Nc3nnn[nH]3)c(OC(C)C3CC3)c2c1` (centres undefined): the IC50 came to 1460 nM. `CC1(OCOc2c(C(=O)Nc3nnn[nH]3)oc3ccc(Cl)cc23)CC1` returned an IC50 of 1460 nM. In turn, `COc1ccc2oc(C(=O)Nc3nnn[nH]3)c(OCC3CCC3)c2c1` had an IC50 of 175 nM. Take `COc1ccc2oc(C(=O)Nc3nnn[nH]3)c(OC3CCCCC3)c2c1`: the IC50 came out at 255 nM. To `CCC(Oc1c(C(=O)Nc2nnn[nH]2)oc2ccc(OC)cc12)C1CCCCC1` (centres undefined) belongs 305 nM. Consider `COc1ccc2oc(C(=O)Nc3nnn[nH]3)c(OCC3CC=CCC3)c2c1` (centres undefined), for which the IC50 came to 315 nM. The IC50 values of the last two molecules are within 1.5-fold of each other. Turning to `COc1ccc2oc(C(=O)Nc3nnn[nH]3)c(OC3CCCC3)c2c1`, the IC50 is 1050 nM. To `COc1ccc2oc(C(=O)Nc3nnn[nH]3)c(OCC3CC=CCC3C)c2c1` (centres undefined) belongs 185 nM. To `COc1ccc2oc(C(=O)Nc3nnn[nH]3)c(OC3CCOCC3)c2c1` belongs 1180 nM.

As to `COc1ccc2oc(C(=O)Nc3nnn[nH]3)c(OC3CC4CCC3C4)c2c1` (centres undefined), the IC50 was 335 nM. In the case of `COc1ccc2oc(C(=O)Nc3nnn[nH]3)c(OC3CCC(C4CCCCC4)CC3)c2c1` (centres undefined), the IC50 amounted to 380 nM. This IC50 and that of the molecule before are within 1.5-fold of each other. Turning to `COc1ccc2oc(C(=O)Nc3nnn[nH]3)c(OC3CCCCCC3)c2c1`, the IC50 came out at 97 nM. The molecule `COc1ccc2oc(C(=O)Nc3nnn[nH]3)c(OCC3CC3)c2c1` had an IC50 of 690 nM. To `COc1ccc2oc(C(=O)Nc3nnn[nH]3)c(OC3CCC(C)C(C)C3)c2c1` (centres undefined) belongs 76 nM; to `COc1ccc2oc(C(=O)Nc3nnn[nH]3)c(OCC3CCCCC3)c2c1`, 840 nM. The figure for `COc1ccc2oc(C(=O)Nc3nnn[nH]3)c(OCC3(C)CC3)c2c1` is 220 nM; for `COc1ccc2oc(C(=O)Nc3nnn[nH]3)c(OCC3CCCCCC3)c2c1` it is 108 nM. The figure for `CCC1(COc2c(C(=O)Nc3nnn[nH]3)oc3ccc(OC)cc23)COC1` is 1460 nM; for `COc1ccc2oc(C(=O)Nc3nnn[nH]3)c(OCC3(C)COC3)c2c1` it is 3640 nM.

`COc1ccc2oc(C(=O)Nc3nnn[nH]3)c(OC3CC(C)CCC3C)c2c1` (centres undefined): the half-inhibitory concentration (IC50) was 370 nM.
